Measured values from ChEMBL document CHEMBL3817750, “New hydrazones of 5-nitro-2-furaldehyde with adamantanealkanohydrazides: synthesis and in vitro trypanocidal activity” (Medchemcomm, 2016).

Tests used:
Trypanosoma cruzi = experiment: Trypanocidal activity against epimastigote form of Trypanosoma cruzi CL Brener assessed as reduction in parasitic growth after 4 days by Alamar blue assay; format: functional; conditions: 96 h
L6 = experiment: Cytotoxicity against rat L6 cells after 6 days by Alamar blue assay; format: cell-based
Trypanosoma brucei = experiment: Trypanocidal activity against bloodstream form of Trypanosoma brucei 427 assessed as reduction in parasitic growth after 48 hrs by Alamar blue assay; format: functional, organism-based; conditions: Trypanosoma brucei, 427, 48 h
[1] = Selectivity index, ratio of IC50 for rat L6 cells to IC50 for bloodstream form of Trypanosoma brucei 427; format: toxicity, cell-based; conditions: read-out: Ratio IC50
[2] = Selectivity index, ratio of IC50 for rat L6 cells to IC50 for epimastigote form of Trypanosoma cruzi CL Brener; format: toxicity, cell-based; conditions: read-out: Ratio IC50
[3] = Rattus norvegicus, L6, 144 h, read-out: IC50

| Structure (SMILES) | IC50 (Trypanosoma cruzi) | IC90 (Trypanosoma cruzi) | IC50 (L6; [3]) | IC50 (Trypanosoma brucei) | IC90 (Trypanosoma brucei) | selectivity ratio [1] | selectivity ratio [2] | IC50 (L6; l6) |
| --- | --- | --- | --- | --- | --- | --- | --- | --- |
| O=C(CC12CC3CC(C1)CC(c1ccccc1)(C3)C2)N/N=C/c1ccc([N+](=O)[O-])o1 | 0.091 µM | 0.18 µM | 5.02 µM | 0.221 µM | 0.573 µM | 23 | 55 |  |
| O=C(CCC12CC3CC(CC(C3)C1)C2)N/N=C/c1ccc([N+](=O)[O-])o1 | 0.348 µM | 0.719 µM | 16 µM | 0.386 µM | 0.56 µM | 41 | 56 |  |
| O=C(N/N=C/c1ccc([N+](=O)[O-])o1)C12CC3CC(CC(C3)C1)C2 | 0.561 µM | 0.992 µM | 7.72 µM | 0.851 µM | 1.04 µM | 9 | 14 |  |
| O=C(CC12CC3CC(CC(C3)C1)C2)N/N=C/c1ccc([N+](=O)[O-])o1 | 0.205 µM | 0.568 µM | 3.17 µM | 0.242 µM | 0.553 µM | 13 | 15 |  |
| O=C(N/N=C/c1ccco1)C12CC3CC(CC(C3)C1)C2 | > 35 µM | > 35 µM | > 35 µM | > 35 µM | > 35 µM |  |  |  |
| O=C(N/N=C/c1ccc([N+](=O)[O-])o1)C12CC3CC(C1)CC(c1ccccc1)(C3)C2 | 0.368 µM | 0.676 µM | 11.4 µM | 0.244 µM | 0.406 µM | 47 | 31 |  |
| O=C(N/N=C/c1ccc([N+](=O)[O-])o1)C12CC3CC(C1)CC(C(=O)N/N=C/c1ccc([N+](=O)[O-])o1)(C3)C2 | > 2 µM | > 2 µM |  | 0.075 µM | 0.098 µM |  |  | ND(Insoluble) |
| O=C(CCC12CC3CC(CC(C3)C1)C2)N/N=C/c1ccco1 | 6.09 µM | 15.7 µM | > 30 µM | > 30 µM | > 30 µM |  |  |  |
| O=C(N/N=C/c1ccc([N+](=O)[O-])o1)C1C2CC3CC(C2)CC1C3 (stereo unspecified) | 0.844 µM | 1.96 µM | 19.2 µM | 0.231 µM | 0.599 µM | 83 | 23 |  |
| CCOC(=O)CC12CC3CC(CC(CC(=O)N/N=C/c4ccc([N+](=O)[O-])o4)(C3)C1)C2 | 0.204 µM | 0.478 µM | 7.49 µM | 0.223 µM | 0.643 µM | 34 | 32 |  |
| O=C(N/N=C/c1ccc([N+](=O)[O-])o1)C12CC3CC(C1)CC(C1CCCC1)(C3)C2 | 0.225 µM | 0.528 µM | 11 µM | 0.216 µM | 0.425 µM | 51 | 49 |  |
| O=C(CCC12CC3CC(C1)CC(c1ccccc1)(C3)C2)N/N=C/c1ccc([N+](=O)[O-])o1 | 0.238 µM | 0.654 µM | 4.59 µM | 0.09 µM | 0.167 µM | 51 | 17 |  |
| O=C(CC12CC3CC(C1)CC(C1CCCC1)(C3)C2)N/N=C/c1ccc([N+](=O)[O-])o1 | 0.178 µM | 0.329 µM | 8.79 µM | 0.306 µM | 0.459 µM | 29 | 49 |  |
| O=C(CCC12CC3CC(C1)CC(C1CCCC1)(C3)C2)N/N=C/c1ccc([N+](=O)[O-])o1 | 0.14 µM | 0.803 µM | 4.6 µM | 0.158 µM | 0.322 µM | 29 | 33 |  |
| O=C(CC1C2CC3CC(C2)CC1C3)N/N=C/c1ccc([N+](=O)[O-])o1 (stereo unspecified) | 0.202 µM | 0.381 µM | 3.26 µM | 0.126 µM | 0.207 µM | 26 | 16 |  |
| O=C(CC12CC3CC(CC(C3)C1)C2)N/N=C/c1ccco1 | > 35 µM | > 35 µM | > 35 µM | > 35 µM | > 35 µM |  |  |  |
| O=C(CCC1C2CC3CC(C2)CC1C3)N/N=C/c1ccc([N+](=O)[O-])o1 (stereo unspecified) | 0.206 µM | 0.513 µM | 2.38 µM | 0.122 µM | 0.177 µM | 20 | 12 |  |
